Test systems include A549; BT-549; CAKI-1; HCC 2998; HL-60; HOP-92; HT-29; KM12; MCF7; Malme-3M; NCI-H226; NCI/ADR-RES; OVCAR-3; OVCAR-8; RXF 393; SF-295; SK-MEL-5; TK-10.
Holding throughout (experiment): NCI anticancer screen, dose series, 48 h

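Dose response: 5 concentrations. Exposure: 48 h. Format: 96-well plates. Endpoint: linear interpolation; highest concentration if not reached. GI50: concentration for 50% inhibition of growth.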 The source made the active and inactive calls. Cut-off read from the data, not from the text of the source: active = GI50 up to about 1.1 µM and inactive = higher.

The record followed here is ChEMBL document CHEMBL1201862, “PubChem BioAssay data set” (2004).

Regarding `Nc1ccccc1OCCCOc1ccccc1N`, the GI50 in the assay with A549, in the assay with BT-549, in the assay with CAKI-1, in the assay on HCC 2998, in the assay on HL-60 and in the assay with HOP-92 was > 100 µM (inactive) throughout. In addition, the GI50 with HT-29, in the assay with KM12, in the assay with MCF7, with Malme-3M, with NCI-H226 and in the assay with NCI/ADR-RES was > 100 µM (inactive) in each case. The GI50 in the assay with OVCAR-3 was > 100 µM (inactive); in the assay with OVCAR-8, > 100 µM (inactive); in the assay with RXF 393, > 100 µM (inactive); in the assay with SF-295 it was > 100 µM (inactive); in the assay on SK-MEL-5, 78.3 µM (inactive); in the assay with TK-10, > 100 µM (inactive).

`CC(=O)c1c(C)cn(S(=O)(=O)NC(=O)Nc2nncs2)c1C`: the GI50 in the assay with A549, in the assay on BT-549, in the assay on CAKI-1, in the assay on HCC 2998, with HL-60 and in the assay on HOP-92 was > 100 µM (inactive) throughout. Moreover, the GI50 in the assay on HT-29 is > 100 µM (inactive); in the assay with KM12, > 100 µM (inactive); in the assay with MCF7 it was > 100 µM (inactive); in the assay on Malme-3M, > 100 µM (inactive); with NCI-H226 it was 49.2 µM (inactive); in the assay with NCI/ADR-RES, > 100 µM (inactive). The GI50 in the assay on OVCAR-3, in the assay with OVCAR-8, with RXF 393, with SF-295, with SK-MEL-5 and in the assay with TK-10 was > 100 µM (inactive) each time.

Regarding `S=C(N/N=C(/c1ccccc1)c1ccccn1)Nc1ccc(Cl)cc1`, the GI50 in the assay with A549 was 1.97 µM (inactive); with BT-549, 3.15 µM (inactive); in the assay on CAKI-1, 0.264 µM (active); in the assay with HCC 2998, 1.88 µM (inactive); with HL-60, < 0.01 µM (active); with HOP-92, 2.11 µM (inactive). Besides, the GI50 is 0.0998 µM (active) with HT-29; 1.07 µM (active) in the assay on KM12; 0.0258 µM (active) in the assay with MCF7; 0.109 µM (active) in the assay with Malme-3M; 0.542 µM (active) with NCI-H226; 0.195 µM (active) in the assay with NCI/ADR-RES. The GI50 with OVCAR-3 was < 0.0316 µM (active); with OVCAR-8, 0.0444 µM (active); in the assay on RXF 393 it was 1.85 µM (inactive); with SF-295, 0.627 µM (active); in the assay on SK-MEL-5 it was 0.403 µM (active); in the assay on TK-10, 0.551 µM (active).

As for `CCCCOCCOC1=C(Cl)C(=O)c2c(O)ccc(O)c2C1=O`, the GI50 is 2.11 µM (inactive) with A549; 0.175 µM (active) in the assay with BT-549; 0.407 µM (active) with CAKI-1; 2.5 µM (inactive) in the assay with HCC 2998; 0.0347 µM (active) in the assay with HL-60; 0.288 µM (active) in the assay on HOP-92. Besides, the GI50 with HT-29 was 0.689 µM (active); in the assay on KM12, 1.83 µM (inactive); in the assay with MCF7, 0.285 µM (active); with Malme-3M, 0.259 µM (active); in the assay with NCI-H226, 2.26 µM (inactive); in the assay on NCI/ADR-RES it was 0.614 µM (active). The GI50 in the assay with OVCAR-3 was 0.547 µM (active); with OVCAR-8 it was 0.347 µM (active); in the assay with RXF 393 it was 0.227 µM (active); with SF-295, 1.53 µM (inactive); with SK-MEL-5, 0.733 µM (active); with TK-10 it was 0.578 µM (active).
